Data: the NIST ThermoML archive (doi:10.1021/je100774p)
± gives the expanded uncertainty stated by the source.

Assay: mn = molality of the nth substance listed, in mol/kg
Settings: 101 kPa, Liquid; for viscosity: Capillary tube (Ostwald / Ubbelohde) method

With `O` [water] + O=C(O)c1cccnc1 the viscosity (293.15 K, m2 = 0) was 1.003 ± 0.008 mPa·s, the viscosity (298.15 K, m2 = 0) was 0.8904 ± 0.0069 mPa·s and the viscosity (303.15 K, m2 = 0) was 0.7973 ± 0.0061 mPa·s. It also gave a viscosity (308.15 K, m2 = 0) of 0.7194 ± 0.0055 mPa·s and a viscosity (313.15 K, m2 = 0) of 0.653 ± 0.0051 mPa·s.

For `O=C(O)c1cccnc1` [3-carboxylpyridine] + O, the viscosity (293.15 K, m1 = 0.004283) was 1.004 ± 0.008 mPa·s, the viscosity (293.15 K, m1 = 0.006512) was 1.005 ± 0.008 mPa·s and the viscosity (293.15 K, m1 = 0.008188) was 1.006 ± 0.008 mPa·s. For the same molecule, the viscosity (293.15 K, m1 = 0.01628) was 1.007 ± 0.008 mPa·s, the viscosity (293.15 K, m1 = 0.03262) was 1.011 ± 0.008 mPa·s and the viscosity (293.15 K, m1 = 0.04903) was 1.015 ± 0.008 mPa·s. For the same molecule, the viscosity (293.15 K, m1 = 0.06555) was 1.018 ± 0.008 mPa·s, the viscosity (293.15 K, m1 = 0.0821) was 1.022 ± 0.008 mPa·s and the viscosity (293.15 K, m1 = 0.09871) was 1.026 ± 0.008 mPa·s. For the same molecule, the viscosity (293.15 K, m1 = 0.1154) was 1.029 ± 0.008 mPa·s, the viscosity (293.15 K, m1 = 0.1321) was 1.033 ± 0.008 mPa·s and the mass density (293.15 K, m1 = 0.004283) was 998.41 ± 0.16 kg/m3. It also gave a mass density (293.15 K, m1 = 0.006512) of 998.5 ± 0.16 kg/m3, a mass density (293.15 K, m1 = 0.00819) of 998.57 ± 0.16 kg/m3 and a mass density (293.15 K, m1 = 0.01628) of 998.83 ± 0.16 kg/m3. It also gave a mass density (293.15 K, m1 = 0.03262) of 999.56 ± 0.16 kg/m3, a mass density (293.15 K, m1 = 0.04903) of 1000.25 ± 0.16 kg/m3 and a mass density (293.15 K, m1 = 0.06555) of 1000.89 ± 0.16 kg/m3. The mass density (293.15 K, m1 = 0.0821) was 1001.66 ± 0.16 kg/m3, the mass density (293.15 K, m1 = 0.09871) was 1002.29 ± 0.16 kg/m3 and the mass density (293.15 K, m1 = 0.1154) was 1003.05 ± 0.16 kg/m3. The mass density (293.15 K, m1 = 0.1321) was 1003.75 ± 0.16 kg/m3, the viscosity (298.15 K, m1 = 0.004283) was 0.8912 ± 0.007 mPa·s and the viscosity (298.15 K, m1 = 0.006512) was 0.8917 ± 0.007 mPa·s. The viscosity (298.15 K, m1 = 0.008188) was 0.8923 ± 0.007 mPa·s, the viscosity (298.15 K, m1 = 0.01628) was 0.8941 ± 0.007 mPa·s and the viscosity (298.15 K, m1 = 0.03262) was 0.8978 ± 0.007 mPa·s. It also gave a viscosity (298.15 K, m1 = 0.04903) of 0.9012 ± 0.007 mPa·s, a viscosity (298.15 K, m1 = 0.06555) of 0.9039 ± 0.007 mPa·s and a viscosity (298.15 K, m1 = 0.0821) of 0.9074 ± 0.0071 mPa·s. The viscosity (298.15 K, m1 = 0.09871) was 0.9109 ± 0.0071 mPa·s, the viscosity (298.15 K, m1 = 0.1154) was 0.9144 ± 0.0071 mPa·s and the viscosity (298.15 K, m1 = 0.1321) was 0.9178 ± 0.0071 mPa·s. The mass density (298.15 K, m1 = 0.004283) was 997.22 ± 0.16 kg/m3, the mass density (298.15 K, m1 = 0.006512) was 997.3 ± 0.16 kg/m3 and the mass density (298.15 K, m1 = 0.00819) was 997.41 ± 0.16 kg/m3. For the same molecule, the mass density (298.15 K, m1 = 0.01628) was 997.73 ± 0.16 kg/m3, the mass density (298.15 K, m1 = 0.03262) was 998.36 ± 0.16 kg/m3 and the mass density (298.15 K, m1 = 0.04903) was 999.09 ± 0.16 kg/m3. The mass density (298.15 K, m1 = 0.06555) was 999.71 ± 0.16 kg/m3, the mass density (298.15 K, m1 = 0.0821) was 1000.45 ± 0.16 kg/m3 and the mass density (298.15 K, m1 = 0.09871) was 1001.09 ± 0.16 kg/m3. For the same molecule, the mass density (298.15 K, m1 = 0.1154) was 1001.8 ± 0.16 kg/m3, the mass density (298.15 K, m1 = 0.1321) was 1002.51 ± 0.16 kg/m3 and the viscosity (303.15 K, m1 = 0.004283) was 0.7981 ± 0.0061 mPa·s. The viscosity (303.15 K, m1 = 0.006512) was 0.7985 ± 0.0061 mPa·s, the viscosity (303.15 K, m1 = 0.008188) was 0.7989 ± 0.0061 mPa·s and the viscosity (303.15 K, m1 = 0.01628) was 0.8005 ± 0.0062 mPa·s. It also gave a viscosity (303.15 K, m1 = 0.03262) of 0.8035 ± 0.0062 mPa·s, a viscosity (303.15 K, m1 = 0.04903) of 0.8067 ± 0.0062 mPa·s and a viscosity (303.15 K, m1 = 0.06555) of 0.8098 ± 0.0062 mPa·s. The viscosity (303.15 K, m1 = 0.0821) was 0.8127 ± 0.0062 mPa·s, the viscosity (303.15 K, m1 = 0.09871) was 0.8158 ± 0.0063 mPa·s and the viscosity (303.15 K, m1 = 0.1154) was 0.8192 ± 0.0063 mPa·s. It also gave a viscosity (303.15 K, m1 = 0.1321) of 0.8225 ± 0.0063 mPa·s, a mass density (303.15 K, m1 = 0.004283) of 995.82 ± 0.16 kg/m3 and a mass density (303.15 K, m1 = 0.006512) of 995.95 ± 0.16 kg/m3. The mass density (303.15 K, m1 = 0.00819) was 996.01 ± 0.16 kg/m3, the mass density (303.15 K, m1 = 0.01628) was 996.31 ± 0.16 kg/m3 and the mass density (303.15 K, m1 = 0.03262) was 996.97 ± 0.16 kg/m3. It also gave a mass density (303.15 K, m1 = 0.04903) of 997.72 ± 0.16 kg/m3, a mass density (303.15 K, m1 = 0.06555) of 998.32 ± 0.16 kg/m3 and a mass density (303.15 K, m1 = 0.0821) of 999.03 ± 0.16 kg/m3. The mass density (303.15 K, m1 = 0.09871) was 999.67 ± 0.16 kg/m3, the mass density (303.15 K, m1 = 0.1154) was 1000.33 ± 0.16 kg/m3 and the mass density (303.15 K, m1 = 0.1321) was 1001.03 ± 0.16 kg/m3. It also gave a viscosity (308.15 K, m1 = 0.004283) of 0.7201 ± 0.0055 mPa·s, a viscosity (308.15 K, m1 = 0.006512) of 0.7205 ± 0.0055 mPa·s and a viscosity (308.15 K, m1 = 0.008188) of 0.7211 ± 0.0055 mPa·s. It also gave a viscosity (308.15 K, m1 = 0.01628) of 0.7224 ± 0.0055 mPa·s, a viscosity (308.15 K, m1 = 0.03262) of 0.7254 ± 0.0055 mPa·s and a viscosity (308.15 K, m1 = 0.04903) of 0.7282 ± 0.0055 mPa·s. It also gave a viscosity (308.15 K, m1 = 0.06555) of 0.7312 ± 0.0056 mPa·s, a viscosity (308.15 K, m1 = 0.0821) of 0.7338 ± 0.0056 mPa·s and a viscosity (308.15 K, m1 = 0.09871) of 0.7364 ± 0.0056 mPa·s. For the same molecule, the viscosity (308.15 K, m1 = 0.1154) was 0.7395 ± 0.0056 mPa·s, the viscosity (308.15 K, m1 = 0.1321) was 0.742 ± 0.0056 mPa·s and the mass density (308.15 K, m1 = 0.004283) was 994.28 ± 0.17 kg/m3. For the same molecule, the mass density (308.15 K, m1 = 0.006512) was 994.35 ± 0.16 kg/m3, the mass density (308.15 K, m1 = 0.00819) was 994.4 ± 0.16 kg/m3 and the mass density (308.15 K, m1 = 0.01628) was 994.75 ± 0.16 kg/m3. For the same molecule, the mass density (308.15 K, m1 = 0.03262) was 995.44 ± 0.16 kg/m3, the mass density (308.15 K, m1 = 0.04903) was 996.14 ± 0.16 kg/m3 and the mass density (308.15 K, m1 = 0.06555) was 996.72 ± 0.16 kg/m3. The mass density (308.15 K, m1 = 0.0821) was 997.41 ± 0.16 kg/m3, the mass density (308.15 K, m1 = 0.09871) was 998.05 ± 0.16 kg/m3 and the mass density (308.15 K, m1 = 0.1154) was 998.71 ± 0.16 kg/m3. For the same molecule, the mass density (308.15 K, m1 = 0.1321) was 999.39 ± 0.16 kg/m3, the viscosity (313.15 K, m1 = 0.004283) was 0.6538 ± 0.0051 mPa·s and the viscosity (313.15 K, m1 = 0.006512) was 0.6543 ± 0.0051 mPa·s. The viscosity (313.15 K, m1 = 0.008188) was 0.6547 ± 0.0051 mPa·s, the viscosity (313.15 K, m1 = 0.01628) was 0.6561 ± 0.0051 mPa·s and the viscosity (313.15 K, m1 = 0.03262) was 0.6588 ± 0.0051 mPa·s. It also gave a viscosity (313.15 K, m1 = 0.04903) of 0.661 ± 0.0051 mPa·s, a viscosity (313.15 K, m1 = 0.06555) of 0.6639 ± 0.0051 mPa·s and a viscosity (313.15 K, m1 = 0.0821) of 0.6662 ± 0.0052 mPa·s. The viscosity (313.15 K, m1 = 0.09871) was 0.6686 ± 0.0052 mPa·s, the viscosity (313.15 K, m1 = 0.1154) was 0.6713 ± 0.0052 mPa·s and the viscosity (313.15 K, m1 = 0.1321) was 0.6742 ± 0.0052 mPa·s. It also gave a mass density (313.15 K, m1 = 0.004283) of 992.41 ± 0.17 kg/m3, a mass density (313.15 K, m1 = 0.006512) of 992.59 ± 0.17 kg/m3 and a mass density (313.15 K, m1 = 0.00819) of 992.64 ± 0.16 kg/m3. The mass density (313.15 K, m1 = 0.01628) was 992.98 ± 0.16 kg/m3, the mass density (313.15 K, m1 = 0.03262) was 993.51 ± 0.16 kg/m3 and the mass density (313.15 K, m1 = 0.04903) was 994.22 ± 0.17 kg/m3. The mass density (313.15 K, m1 = 0.06555) was 994.91 ± 0.16 kg/m3, the mass density (313.15 K, m1 = 0.0821) was 995.56 ± 0.16 kg/m3 and the mass density (313.15 K, m1 = 0.09871) was 996.21 ± 0.16 kg/m3. It also gave a mass density (313.15 K, m1 = 0.1154) of 996.84 ± 0.16 kg/m3 and a mass density (313.15 K, m1 = 0.1321) of 997.49 ± 0.16 kg/m3.
